Legend:
[1] = Fe(II) oxidation assay (inhibition of Fe(II)-autooxidation); assay type: biochemical; conditions: for FE(II)-AUTOXIDATION Inhibition, %: synaptosomal membrane/lipid fractions, 50 μM Fe(II) sulfate, pH 7.4, 10 min at 37° C., test concentration not given
Excerpt: The testing of the substances for Fe(II)-autooxidation inhibition activity occurs according to B. Ruiz-Larrea, et al, “Antioxidant effects of estradiol and 2-hydroxyestradiol on iron-induced lipid peroxidation of rat liver microsomes”, Steroids 39 (1994), pp. 383-388 and B. Ruiz-Larrea, et al, Effects of estrogens on the redox chemistry of iron: “A possible mechanism of the antioxidant action of estrogens”, Steroids 60 (1995), pp. 780-783.
All autooxidation experiments involving the Fe(II) ions were performed in aqueous solutions, which contain synaptosomal membrane/lipid fractions. A 1.0 ml biological sample containing 50 μM Fe(II) sulfate, 45 mM tris-HCl buffer (pH=7.4) and 0.08 mg of synaptosomal proteins were incubated with test substances dissolved in ethanol (10% v/v) for 10 min in a water bath at 37° C., subsequently stopped by addition of 50 μL of a 0.32 M 1,10-phenanthrolene solution and the extinction of Fe(II) phenanthroline complexes at 510 nm was measured.
All other biochemicals are of the highest analytical grade of purity. The test substances are preferably made in the form of a 20 millimolar stock solution in 95% ethanol and diluted immediately prior to the start of the experiment.

[2] = Fe(III) reduction assay (stimulation of Fe(III) reduction); assay type: biochemical; conditions: 25 μM Fe(III) chloride, tris-HCl pH 7.4; test concentration not given
Excerpt: The testing of the substances for their ability to stimulate Fe(III) reduction occurs according to B. Ruiz Larrea, et al, “Antioxidant effects of estradiol and 2-hydroxyestradiol on iron-induced lipid peroxidation of rat liver microsomes”, Steroids 39 (1994), p. 383-388 and B. Ruiz-Larrea, et al, Effects of estrogens on the redox chemistry of iron: A possible mechanism of the antioxidant action of estrogens”, Steroids 60 (1995), pp. 780 to 783.
The biological sample contained the following components: 25 μM Fe(III) chloride in 150 mM tris-HCl (pH=7.4), 15 mM 1,10-phenanthrolene and the substance to be tested, dissolved in an ethanol vehicle. The formation of the Fe(II) phenanthroline complex is registered spectrophotometrically at 510 nm.

[3] = tested on: vaginal epithelium of ovariectomized rats; assay: Allen-Doisy test, estrogenicity in vivo in ovariectomized rats (vaginal smears); set-up: species or system rat; conditions: one-time subcutaneous administration d1, ovariectomized rats
Protocol: Estrogens lead to characteristic changes in vaginal epithelium in ovariectomized rodents. The upper cells become heavily cornified and a strong proliferation occurs. These changes in cell formation were determined by vaginal smears. The occurrence of cornified anuclear epithelial cells is an expression of estrogen-specific activity (Allen-Doisy Test).
Subcutaneous Testing for Estrogen Activity
Estrogens lead to characteristic changes in vaginal epithelium with ovariectomized rodents. Strong proliferation and cornification of the upper cell layer occurs. These changes are detectable in cells from vaginal smears. The occurrence of cornified anuclear epithelial cells is an expression of an estrogen-specific activity—i.e. the Allen-Doisy Test—according to R. J. Dorfman, (Hrsg.), Methods in Hormone Research, p. 72 ff, Academic Press, New York, 1969.
White Wistar Rats (origin: Shoe: WIST=Mol : WIST, n=48) that weighed from 180 to 200 g were supplied, divided randomly into trial groups (n=3 to 5 animals/group), habituated in supporting conditions for about one week and subsequently ovariectomized under anesthesia with ursotami.
The test substances for subcutaneous and oral administration were formulated in benzyl benzoate/castor oil (1+4) or in polyoxyethylene(50-stearate) by Myrj® (85 mg polyoxyethylene(50-stearate) in 100 ml 0.9% w/v sodium chloride solution).
The administered volume amounted to 0.2 ml/animal.
Rats with a weight of about 200 g were ovariectomized under anesthesia with ursotami and about 2 weeks after that the animal was tested in the presence of a castrated vaginal cell formation (dioestrus). After that 0.2 ml per animal of the test substance was administered once subcutaneously. Vaginal smears were taken 24, 48, 54 and 72 hours after the one-time administration of the test substance and subsequent oestrus stages were evaluated(dioestrus=1; proestrus=2; oestrus=3; metoestrus=4). The experiment was ended after four days according to the standard ALLEN-DOISY test. The animals were sacrificed under anesthesia in ether by dislocation of the neck vertebral column, the uterus was prepared and its moist weight (without secretion) was measured. The suprarenal capsules were also prepared and weighed.
The results of the colpotropic test—the occurrences of oestral vaginal cell forms as reagents per doses group and the uteropic activity(uterus weight) were measured. The average of the uterus weight of the test groups was compared with the average of the vehicular groups and, if necessary, the significance of the differences was determined by a t-test according to STUDENT. The moist weight of the suprarenal capsules of all groups was also determined.

[4] = tested on: Synaptosomal membrane fractions (rat); conditions: for IC50: read-out: LIPID PEROXIDATION INHIBITION (IC50 μMol/l), synaptosomal membrane fractions (rat), 30 min at 37° C.; for antioxidative action in lipid peroxidation (in words): compared with 17α-estradiol and 17β-estradiol
[5] = biological target: T1, estrogen receptor (Homo sapiens, UniProt P03372); assay: Relative binding affinity to estrogen receptor sites; conditions: relative to 17β-estradiol = 100
T1 sequence (P03372 1-595): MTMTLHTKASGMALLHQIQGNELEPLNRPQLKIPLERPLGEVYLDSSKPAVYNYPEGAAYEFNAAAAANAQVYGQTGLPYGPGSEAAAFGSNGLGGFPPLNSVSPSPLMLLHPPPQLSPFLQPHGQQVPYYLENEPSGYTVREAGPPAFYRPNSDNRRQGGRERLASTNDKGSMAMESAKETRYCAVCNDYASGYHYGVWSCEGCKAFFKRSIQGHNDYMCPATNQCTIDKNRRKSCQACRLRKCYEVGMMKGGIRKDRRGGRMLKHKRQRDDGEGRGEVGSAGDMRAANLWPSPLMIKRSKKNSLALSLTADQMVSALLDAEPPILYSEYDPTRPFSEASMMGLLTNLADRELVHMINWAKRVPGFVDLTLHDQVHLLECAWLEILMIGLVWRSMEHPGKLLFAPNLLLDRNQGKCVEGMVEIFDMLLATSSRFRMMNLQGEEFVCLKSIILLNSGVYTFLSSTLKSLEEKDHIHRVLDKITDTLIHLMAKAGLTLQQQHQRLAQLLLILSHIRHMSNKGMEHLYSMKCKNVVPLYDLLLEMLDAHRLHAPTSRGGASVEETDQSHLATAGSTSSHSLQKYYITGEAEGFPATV

[6] = biological target: T1, estrogen receptor; conditions: background; natural 17β-estradiol = 100%; cited from earlier work
[7] = background statement; cited from earlier work

SMILES	FE(II)-AUTOXIDATION Inhibition, % [1]	FE(III)-REDUCTION Stimulation, % [2]	effect on the Fe(II)-autooxidation process (in words) [1]	IC50 [4]	also measured
C[C@]12CC[C@@H]3c4cc(O)c(O)cc4CC[C@H]3[C@@H]1CC[C@@H]2O [2-hydroxy-17β-estradiol]	64.20%	35.26%	–	–	–
C[C@]12CC[C@@H]3c4ccc(O)c(O)c4CC[C@H]3[C@@H]1CC[C@H]2O [4-hydroxy-17α-estradiol]	59.51%	32.71%	–	–	–
C[C@]12CC[C@@H]3c4ccc(O)cc4CC[C@H]3[C@@H]1CC[C@H]2O [17α-estradiol]	≦1%	≦1%	do not or do not substantial change	8.9 µmol/L	Allen-Doisy Test, flaking, d1-d4 vaginal scale stage 3 (reagent/group) ([3]; 10 μg/animal): 0/6; Allen-Doisy Test, flaking, d1-d4 vaginal scale stage 3 (reagent/group) ([3]; 100 μg/animal): 6/6
C[C@]12CC[C@@H]3c4ccc(O)cc4CC[C@H]3[C@@H]1CC[C@@H]2O [17β-estradiol]	≦1%	≦1%	do not or do not substantial change	12.4 µmol/L	Allen-Doisy Test, flaking, d1-d4 vaginal scale stage 3 (reagent/group) ([3]; 0.03 μg/animal): 1/5; Allen-Doisy Test, flaking, d1-d4 vaginal scale stage 3 (reagent/group) ([3]; 0.1 μg/animal): 5/5
CN(C)c1ccc(CC2(O)CCC3C4CCc5cc(O)ccc5C4=CCC32C)cc1 (stereo not drawn) [J 844, 17α-4′-dimethylamino-phenylmethyl-estra-1,3,5(10),9(11)-tetraen-3,17-diol]	–	–	–	–	relative binding affinity (% binding to estrogen receptor) [5]: 0.7%; binding affinity to estrogen receptor sites [6]: less than 1%
COc1ccc2c(c1)CC[C@@H]1[C@@H]2CC[C@@]2(C)[C@H]1CC[C@@]2(O)Cc1ccc(N(C)C)cc1 [J 848, 3-methoxy-17α-4′-dimethylamino-phenylmethyl-estra-1,3,5(10)-trien-17-ol]	–	–	–	–	Allen-Doisy Test, flaking, d1-d4 vaginal scale stage 3 (reagent/group) ([3]; 30 μg/animal): 0/5; Allen-Doisy Test, flaking, d1-d4 vaginal scale stage 3 (reagent/group) ([3]; 300 μg/animal): 2/5; estrogen activity in vivo [7]: high estrogen activity
C[C@]12CC[C@H]3c4ccc(O)cc4CC[C@@H]3[C@H]1CC[C@H]2O [J 855, 8α, 9β, 14β-estra-1,3,5(10)-trien-3,17α-diol]	–	–	–	–	Allen-Doisy Test, flaking, d1-d4 vaginal scale stage 3 (reagent/group) ([3]; 1000 μg/animal): 5/5; Allen-Doisy Test, flaking, d1-d4 vaginal scale stage 3 (reagent/group) ([3]; 10000 μg/animal): 5/5
Cc1ccc(O)c2c1CC[C@@H]1[C@@H]2CC[C@]2(C)[C@@H](O)CC[C@@H]12 [J 1178, 4-methyl-estra-1,3,5(10)-trien-1,17β-diol]	22.26%	19.23%	have the ability to inhibit the Fe(II)-autooxidation process	1.7 µmol/L	relative binding affinity (% binding to estrogen receptor) [5]: 0.04%; Allen-Doisy Test, flaking, d1-d4 vaginal scale stage 3 (reagent/group) ([3]; 1000 μg/animal): 0/5; Allen-Doisy Test, flaking, d1-d4 vaginal scale stage 3 (reagent/group) ([3]; 10000 μg/animal): 1/5; antioxidative action in lipid peroxidation (in words) [4]: considerably stronger antioxidative action
Cc1ccc(O)c2c1CC[C@@H]1[C@@H]2CC[C@]2(C)[C@H](O)CC[C@@H]12 [J 1179, 4-methyl-estra-1,3,5(10)-trien-1,17α-diol]	26.07%	21.41%	have the ability to inhibit the Fe(II)-autooxidation process	1.94 µmol/L	relative binding affinity (% binding to estrogen receptor) [5]: <0.03%; Allen-Doisy Test, flaking, d1-d4 vaginal scale stage 3 (reagent/group) ([3]; 10000 μg/animal): 0/5; antioxidative action in lipid peroxidation (in words) [4]: considerably stronger antioxidative action
Cc1cc(C(C)(C)C)c(O)c(C(C)(C)C)c1 [butyrohydroxytoluene (BHT), butyrohydroxytoluene]	–	–	–	0.95 µmol/L	–
Cc1c(C)c2c(c(C)c1O)CC[C@@](C)(CCC[C@H](C)CCC[C@H](C)CCCC(C)C)O2 [α-tocopherol (Vitamin E), α-tocopherol]	–	–	–	117 µmol/L	–

— US6436917B1, “Non-estrogenic estradiol derivative compounds with anti-oxidative activity” (Jenapharm GmbH & Co. KG, priority 1997, dated 2002)
